Values after ≈ are worked out from the molar mass of the structure shown. Values joined by “and” are separate entries in the source; they are usually repeats but may differ in a detail not shown here. Equal entries are not always repeated. Where two headings read alike, the source gives them in different places.
Target: T1, acetylcholinesterase (from human erythrocytes) (Homo sapiens, UniProt P22303)
T1 construct: acetylcholinesterase (from human erythrocytes, purchased from Sigma-Aldrich, Seoul, Korea); purchased Sigma-Aldrich, Seoul, Korea; host or cells: human erythrocytes (natural source)
T1 sequence (P22303 32-617 isoform P22303-2 limits assumed): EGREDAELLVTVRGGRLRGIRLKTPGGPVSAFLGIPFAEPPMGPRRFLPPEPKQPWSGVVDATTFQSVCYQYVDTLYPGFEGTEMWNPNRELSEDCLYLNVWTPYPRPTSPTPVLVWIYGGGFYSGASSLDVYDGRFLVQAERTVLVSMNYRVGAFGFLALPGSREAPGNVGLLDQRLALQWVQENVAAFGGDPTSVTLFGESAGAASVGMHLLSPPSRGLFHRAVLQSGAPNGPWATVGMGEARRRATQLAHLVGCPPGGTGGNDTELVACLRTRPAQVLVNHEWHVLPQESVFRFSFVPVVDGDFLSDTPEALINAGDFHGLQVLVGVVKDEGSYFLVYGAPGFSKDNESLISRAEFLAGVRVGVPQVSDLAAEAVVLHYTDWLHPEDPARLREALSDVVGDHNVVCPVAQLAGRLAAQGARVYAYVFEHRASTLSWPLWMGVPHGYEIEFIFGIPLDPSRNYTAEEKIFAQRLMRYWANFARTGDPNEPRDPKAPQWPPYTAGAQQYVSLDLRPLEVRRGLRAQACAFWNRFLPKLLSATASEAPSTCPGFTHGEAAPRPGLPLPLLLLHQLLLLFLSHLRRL
Assay: biochemical
Parameters: LogIC50 (best-fit value): unit not given here
Details: for inhibition (Mean): mean of three; for IC50 (best-fit value): unit not given
Experimental: The inhibitory activities of synthesized compounds were determined spectrophotometrically using acetylthiocholine iodide as substrate by following the method of ([Ellman et al., 1961]). Briefly, The assay solution consisted of 180 µL of 50 mM Tris-HCl buffer, pH 7.7, containing (0.1 M sodium chloride and 0.02 M magnesium chloride) and 20 µL of enzyme (AChE, EC 3.1.1.7), acetylcholinesterase (from human erythrocytes, purchased from Sigma-Aldrich, Seoul, Korea) solution (50 U per well); increasing concentrations of test compounds (10 µL) were added to the assay solution and pre incubated for 30 min at 4 °C. After that 5,5′ Dithiobis (2 nitrobenzoic acid) (0.3 mM, 20 µL) and acetylthiocholine iodide (1.8 mM, 20 µL) were added to the reaction mixture and incubated at 37 °C for 10 min, followed by the measurement of absorbance at 412 nm. For non-enzymatic reaction, the assays were carried out with a blank containing all components except acetylcholinesterase. The assay measurements were measured at 412 nm using a micro plate reader (OPTI Max Tunable; Molecular Devices, Sunnyvale, CA, USA) having a wave-length range from 340–850 nm; for 96 well plates. The reaction rates were compared and percent inhibition was calculated due to the presence of tested inhibitors. […] Each concentration was analyzed in three independent experiments run in triplicate. The IC50 values were calculated by nonlinear regression using GraphPad Prism 5.0.
The % of Inhibition of Acetylcholinesterase was calculated as following: Inhibition%=B−S∕B×100. Here, the B and S are the absorbance’s for the blank and samples.

[1] = each of three independent experiments, Raw Data of IC50 sheet, read-out: IC50, single experiment (converted)
[2] = from human erythrocytes, mean ± SEM, read-out: Acetylcholinesterase IC50 ± SEM
[3] = mean converted to uM, Raw Data of IC50 sheet, read-out: IC50
[4] = mean of three experiments, Raw Data of IC50 sheet, read-out: IC50 (Mean) (converted)
[5] = values as printed in abstract and discussion, read-out: acetylcholinesterase IC50
[6] = log(inhibitor) vs. response fit, single run, IC50 Raw Data sheet
[7] = log(inhibitor) vs. response fit, single run, unit inferred, IC50 Raw Data sheet, read-out: IC50 (best-fit value) (converted)
[8] = Conc: 0.0306373 (unit not given), Raw Data of IC50 sheet
[9] = Conc: 0.0612745 (unit not given), Raw Data of IC50 sheet
[10] = Conc: 0.122549 (unit not given), Raw Data of IC50 sheet
[11] = Conc: 0.245098 (unit not given), Raw Data of IC50 sheet
[12] = Conc: 0.490196 (unit not given), Raw Data of IC50 sheet
[13] = Conc: 0.980392 (unit not given), Raw Data of IC50 sheet
[14] = Conc: 1.96078 (unit not given), Raw Data of IC50 sheet
[15] = Conc: 3.92157 (unit not given), Raw Data of IC50 sheet
[16] = Concentration 0.0306373 (unit not given), IC50 Raw Data sheet
[17] = Concentration 0.0612745 (unit not given), IC50 Raw Data sheet
[18] = Concentration 0.122549 (unit not given), IC50 Raw Data sheet
[19] = Concentration 0.245098 (unit not given), IC50 Raw Data sheet
[20] = Concentration 0.490196 (unit not given), IC50 Raw Data sheet
[21] = Concentration 0.980392 (unit not given), IC50 Raw Data sheet
[22] = Concentration 1.96078 (unit not given), IC50 Raw Data sheet
[23] = Concentration 3.92157 (unit not given), IC50 Raw Data sheet
[24] = each of three independent experiments, Raw Data of IC50 sheet
[25] = mean of three experiments, Raw Data of IC50 sheet

Row | SMILES | IC50 [1] | IC50 [2] [µM] | IC50 [3] [µM] | IC50 [4] [µM] | LogIC50 (best-fit value) [6] | inhibition, single experiment [8] | inhibition (Mean) [8] | inhibition, single experiment [9] | inhibition (Mean) [9] | inhibition, single experiment [10] | inhibition (Mean) [10] | inhibition, single experiment [11] | inhibition (Mean) [11] | inhibition, single experiment [12] | inhibition (Mean) [12] | inhibition, single experiment [13] | inhibition (Mean) [13] | inhibition, single experiment [14] | inhibition (Mean) [14] | inhibition, single experiment [15] | also measured
1 | CCN(CCc1ccc(OC)cc1)S(=O)(=O)c1ccc(C)cc1 [Compound 5a, N-Ethyl-N-(4-methoxyphenethyl)-4-methylbenzensulfonamide] | 25 µM and 21 µM and 21.6 µM | 22.5 ± 1.23 | 22.5 | 22.5 | – | – | – | – | – | – | – | – | – | – | – | – | – | – | – | – | –
2 | CCCN(CCc1ccc(OC)cc1)S(=O)(=O)c1ccc(C)cc1 [Compound 5b, N-(4-Methoxyphenethyl)-4-methyl-N-(1-propyl)benzensulfonamide] | 4.77 µM and 3.7 µM and 4.01 µM | 4.16 ± 0.318 | 4.16 | 4.16 | – | – | – | – | – | – | – | – | – | – | – | – | – | – | – | – | IC50 [5]: 0.119 µM
3 | CCCCN(CCc1ccc(OC)cc1)S(=O)(=O)c1ccc(C)cc1 [Compound 5d, N-(1-Butyl)-N-(4-methoxyphenethyl)-4-methylbenzensulfonamide] | 0.0997 µM and 0.134 µM | 0.12 ± 0.0102 | 0.12 | 0.12 | -1.347 | – | – | – | – | – | – | – | – | – | – | – | – | – | – | – | IC50 [7]: 0.125 µM; IC50 [5]: 0.124 ± 0.021 µM
4 | CCCCCN(CCc1ccc(OC)cc1)S(=O)(=O)c1ccc(C)cc1 [Compound 5e, N-(4-Methoxyphenethyl)-4-methyl-N-(1-pentyl)benzensulfonamide] | 0.374 µM and 0.414 µM and 0.406 µM | 0.398 ± 0.0123 | 0.398 | 0.398 | -0.8411 | – | – | – | – | – | – | – | – | – | – | – | – | – | – | – | IC50 [7]: 0.384 µM
5 | CCCCCCCN(CCc1ccc(OC)cc1)S(=O)(=O)c1ccc(C)cc1 [Compound 5f, N-(1-Heptyl)-N-(4-methoxyphenethyl)-4-methylbenzensulfonamide] | 0.474 µM and 0.427 µM | 0.444 ± 0.015 | 0.444 | 0.444 | -0.759 | – | – | – | – | – | – | – | – | – | – | – | – | – | – | – | IC50 [7]: 0.432 µM
6 | COc1ccc(CCN(CCCc2ccccc2)S(=O)(=O)c2ccc(C)cc2)cc1 [Compound 5g, N-(4-Methoxyphenethyl)-4-methyl-N-(3-phenyl-1-propyl) benzensulfonamide] | – | 0.798 ± 0.0138 | 0.798 | – | -0.4313 | 16.111 and 16.8631 | 16.1834 | 30.2326 and 29.5369 | 29.6527 | 32.9175 and 33.3333 | 32.8451 | 43.5555 and 42.1199 | 42.7571 | 49.3413 and 49.9987 | 49.6905 | 59.3325 and 58.7749 | 59.2851 | 66.9964 and 65.1126 | 66.1998 | 74.8965 and 74.0186 | inhibition (Mean) [15]: 74.3992; % inhibition [16]: 15.576%; % inhibition [17]: 32.2845%; % inhibition [18]: 29.1886%; % inhibition [19]: 42.5959%; % inhibition [20]: 49.7315%; % inhibition [21]: 59.7479%; % inhibition [22]: 66.4906%; % inhibition [23]: 74.2824%; IC50, single experiment [24]: 0.3267 µg/mL and 0.3464 µg/mL and 0.341 µg/mL; IC50 (best-fit value) [6]: 0.3704; IC50 (Mean) [25]: 0.338 µg/mL (≈ 0.798 µM)
7 | COc1ccc(CCN(Cc2ccccc2C)S(=O)(=O)c2ccc(C)cc2)cc1 [Compound 5h, N-(4-Methoxyphenethyl)-4-methyl-N-(2-methylbenzyl) benzensulfonamide] | – | 1.011 ± 0.0053 | 1.01 | – | -0.3874 | 41.4444 and 41.0099 | 40.984 | 45.3557 and 45.1011 | 44.9216 | 50.9025 and 51.1299 | 51.0341 | 63.8777 and 63.001 | 63.2456 | 71.1111 and 70.9965 | 70.8325 | 78.3125 and 78.8745 | 78.5659 | 83.9784 and 86.5532 | 85.3051 | 96.8547 and 96.1111 | inhibition (Mean) [15]: 96.3251; % inhibition [16]: 40.4976%; % inhibition [17]: 44.3081%; % inhibition [18]: 51.0699%; % inhibition [19]: 62.858%; % inhibition [20]: 70.3899%; % inhibition [21]: 78.5107%; % inhibition [22]: 85.3837%; % inhibition [23]: 96.0094%; IC50, single experiment [24]: 0.4151 µg/mL and 0.4171 µg/mL; IC50 (best-fit value) [6]: 0.4098; IC50 (Mean) [25]: 0.414 µg/mL (≈ 1.01 µM)
8 | COc1ccc(CCN(Cc2cccc(C)c2)S(=O)(=O)c2ccc(C)cc2)cc1 [Compound 5i, N-(4-Methoxyphenethyl)-4-methyl-N-(3-methylbenzyl) benzensulfonamide] | – | 0.47 ± 0.0109 | 0.47 | – | -0.7362 | 38.1497 and 38.771 | 38.1601 | 45.4473 and 46.02 | 45.6873 | 56.7855 and 56.3378 | 56.078 | 70.5479 and 70.7214 | 71.0257 | 74.2589 and 75.8888 | 75.1591 | 78.1111 and 76.8876 | 77.3479 | 87.2875 and 87.9775 | 87.5273 | 97.778 and 97.9734 | inhibition (Mean) [15]: 97.9676; % inhibition [16]: 37.5596%; % inhibition [17]: 45.5947%; % inhibition [18]: 55.1106%; % inhibition [19]: 71.8079%; % inhibition [20]: 75.3297%; % inhibition [21]: 77.0449%; % inhibition [22]: 87.3169%; % inhibition [23]: 98.1514%; IC50, single experiment [24]: 0.1949 µg/mL and 0.1984 µg/mL; IC50 (best-fit value) [6]: 0.1836; IC50 (Mean) [25]: 0.1923 µg/mL (≈ 0.47 µM)
9 | COc1ccc(CCN(Cc2ccc(C)cc2)S(=O)(=O)c2ccc(C)cc2)cc1 [Compound 5j, N-(4-Methoxyphenethyl)-4-methyl-N-(4-methylbenzyl) benzensulfonamide] | – | 1.11 ± 0.0999 | 1.11 | – | -0.3835 | 17.2222 and 17.1022 | 17.3151 | 31.4199 and 30.0777 | 30.8306 | 36.8749 and 37.0114 | 36.7468 | 48.1258 and 49.804 | 49.2304 | 54.7822 and 55.2287 | 55.0656 | 59.1009 and 58.8888 | 59.2947 | 65.9226 and 65.7652 | 65.7178 | 90.0712 and 89.7746 | inhibition (Mean) [15]: 89.7021; % inhibition [16]: 17.621%; % inhibition [17]: 30.9943%; % inhibition [18]: 36.3541%; % inhibition [19]: 49.7613%; % inhibition [20]: 55.1859%; % inhibition [21]: 59.8945%; % inhibition [22]: 65.4657%; % inhibition [23]: 89.2606%; IC50, single experiment [24]: 0.5355 µg/mL and 0.4119 µg/mL; IC50 (best-fit value) [6]: 0.4136; IC50 (Mean) [25]: 0.4537 µg/mL (≈ 1.11 µM)

Source: paper PMC6025150, “Synthesis, enzyme inhibitory kinetics mechanism and computational study of N-(4-methoxyphenethyl)-N-(substituted)-4-methylbenzenesulfonamides as novel therapeutic agents for Alzheimer’s disease” (PeerJ, 2018)
